Test results taken from patent US20240383910A1, “SMALL MOLECULE BTK DEGRADERS AND METHODS OF USE THEREOF” (Baylor College of Medicine, priority 2023, published 2024).
Several values for one entry are separate records, joined by “and”; a condition that tells them apart may be missing. Equal entries are not always repeated. Where two headings read alike, the source gives them in different places.

Key:
BTK [1] = target: T1, BTK (Homo sapiens, UniProt Q06187); assay: TR-FRET saturation binding assay of the BTK tracer
Description: (§1) To measure the binding affinities between PROTACs and BTK, a time-resolved fluorescence resonance energy transfer (TR-FRET) competition binding assay was developed. A BTK tracer was synthesized by conjugating an ibrutinib-based reversible noncovalent binder with the BODIPY-FL dye (FIG. 1). […] In the presence of the BTK tracer, competition assays were performed to measure the binding affinities between BTK and its inhibitors and PROTACs. […] The very weak BTK binding affinities for PS-RC-1, PS-RC-2, PS-RC-3 and PS-RC-4 explain their minimal BTK degradation effects in cells and further support that the observed growth inhibitory effect of PS-RC-1 in Mino cells is unrelated to the BTK pathway.
Target sequence in this assay (Q06187 whole entry, species assumed): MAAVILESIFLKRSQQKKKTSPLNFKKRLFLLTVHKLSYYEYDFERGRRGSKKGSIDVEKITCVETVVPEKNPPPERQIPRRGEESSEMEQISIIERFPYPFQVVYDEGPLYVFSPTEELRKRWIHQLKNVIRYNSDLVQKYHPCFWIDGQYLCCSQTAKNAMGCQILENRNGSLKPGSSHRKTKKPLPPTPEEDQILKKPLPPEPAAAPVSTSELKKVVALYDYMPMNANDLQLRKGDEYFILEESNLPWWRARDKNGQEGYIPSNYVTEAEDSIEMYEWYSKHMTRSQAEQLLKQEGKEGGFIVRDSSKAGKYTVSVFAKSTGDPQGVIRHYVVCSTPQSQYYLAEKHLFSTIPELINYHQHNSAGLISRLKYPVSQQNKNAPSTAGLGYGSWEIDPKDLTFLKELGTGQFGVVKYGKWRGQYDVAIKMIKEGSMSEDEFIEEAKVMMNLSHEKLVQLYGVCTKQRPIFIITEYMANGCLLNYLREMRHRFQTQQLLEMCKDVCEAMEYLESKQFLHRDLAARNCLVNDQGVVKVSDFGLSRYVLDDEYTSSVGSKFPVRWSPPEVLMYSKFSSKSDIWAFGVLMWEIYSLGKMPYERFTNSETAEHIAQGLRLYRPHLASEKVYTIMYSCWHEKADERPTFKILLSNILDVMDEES

GSPT1 = target: T2, GSPT1 (Homo sapiens, UniProt P15170+Q96SW2); assay: Western blotting for GSPT1 in Mino cells; format: cell-based; conditions: up to 1000 nM, 24 h, Western blot
T2 construct: host or cells: Mino
Description: (§2) Panel a. […] Panel b. […] Panel c. […] Panel d-e. […] Panel g.
Mino cells were seeded into the wells of six-well plates at the density of 5×10^5 cells per mL in 2 mL of complete RPMI-1640 culture medium. After overnight adaptation, cells were treated with serially diluted compounds (from 1,000-1.6 nM, 5-fold dilution) for 24 hours. After treatment, whole cell lysates for immunoblotting were prepared by pelleting Mino cells at 4° C. and 200×g for 5 minutes. The resulting cell pellets were washed once with ice-cold PBS and lysed in 1×RIPA lysis buffer (Alfa Aesar, Cat. No. J62524) supplemented with protease and phosphatase inhibitor cocktail (Thermo Fisher, Cat. No. 78430). Lysates were centrifuged at 15,000×g for 10 min at 4° C. and protein concentrations were assessed using BCA assay (Pierce, Cat. No. 23225). Same amounts of protein (30 μg) for each sample were loaded onto sodium dodecyl sulfate-polyacrylamide gel, separated by electrophoresis (Bio-Rad) at 120 V for 1.5 h and transferred to PVDF membrane using a Transblot Turbo system (Bio-Rad). […] All Western blots were subsequently processed and quantified with Imager software ImageJ and protein level was normalized to the B-actin loading controls.

BTK [2] = target: T1, BTK; assay: BTK ligand competition assay in Ramos cells (Western blotting for BTK); format: cell-based; design: host or cells: Ramos; conditions: co-treated with 100 nM PS-2, 24 hours, PS2W at 50 μM
Target sequence in this assay (Q06187 whole entry): as the sequence (Q06187 whole entry, species assumed) above
Description: Ramos cells were incubated overnight, and then the indicated compounds were added and incubated for 24 hours, followed by Western blotting for BTK degradation.
Ramos cells were incubated overnight, and then the indicated compounds were added and incubated for 24 hours, followed by Western blotting for BTK degradation (FIG. 7).

Mino cells [3] = assay: cells; conditions: Homo sapiens, 72 h
From the text: (§8) The cell viabilities were quantified using an Alarma Blue assay.
(§9) Dataset represents an average of n=3 replicates.

His-BTK = target: T3, His-BTK (Homo sapiens, UniProt Q06187); assay: TR-FRET competition binding assay with BTK-BODIPY tracer; conditions: for binding to BTK (result in words): TRFRET assay, up to 100 μM; for IC50: TR-FRET, 2 nM His-BTK, 150 nM BTK-BODIPY tracer, 2 h incubation
T3 construct: purchased SignalChem B10-10H-10
Description: (§3) Panels a-b. […] Panel c. […] Panel d. […] Panel e. […] Panel f.
Time-resolved fluorescence resonance energy transfer (TR-FRET) assay was carried out to evaluate the binding of indicated compounds and BTK by competition with a BODIPY-FL labeled BTK tracer (See FIG. 1, BTK TR-FRET tracer). The assay was performed in 20 μL assay buffer (50 mM Tris, pH7.5, 0.1% Triton X-100, 0.01% BSA, and 1 mM DTT) with 0.3 nM Tb-anti-His (Cisbio, Cat. No. 61HI2TLA), 2 nM His-BTK (SignalChem, Cat. No. […] Unless specified otherwise, all assays were performed in triplicates. The assay mixtures were incubated at room temperature in the dark for 120 min, unless specified otherwise, and the signals were collected using a BioTek Synergy H1 microplate reader to measure the fluorescence emission ratio ([…]) of each well, using a 340-nm excitation filter, a 100-μs delay, and a 200-μs integration time. Raw data from the plate reader were used directly for analysis. The curve-fitting software GraphPad Prism 9 was used to generate graphs and curves and to determine IC50 values.
as §1

MM.1S cells = assay: Alarma Blue cell viability assay, MM.1S cells; format: cell-based; conditions: Homo sapiens, MM1.S, 120 h, read-out: IC50, cell growth inhibition
From the text: as §2

BTK [4] = target: T4, BTK (Mus musculus, UniProt P35991); assay: Western blotting for BTK in A20 cells; format: cell-based; conditions: A20 cells, 40, 200 and 1000 nM, 24 h, Western blot
T4 construct: host or cells: A20
Description: (§4) CC-220 is a IKZF1/3 degrader developed by Celgene and used for comparison.
(§5) In contrast, PS-3, whose warhead is further reduced compared with PS-2, loses its ability to function as either a BTK degrader or a potent IKZF1/3 molecular glue. To confirm this observation, BTK degradation induced by PS-1, PS-2, and PS-3 was tested in both a human B lymphocyte cell line Ramos and mouse BALB/c B cell lymphoma line A20, with DD-03-171 from the Gray group as a positive control (FIG. 5).

BTK [5] = target: T1, BTK; assay: Western blotting for BTK in Ramos cells; format: cell-based; design: host or cells: Ramos; conditions: Ramos cells, 40, 200 and 1000 nM, 24 h, Western blot
Description: as §4, §5
Target sequence in this assay (Q06187 whole entry): as the sequence (Q06187 whole entry, species assumed) above

BTK [6] = target: T1, BTK; assay: Western blotting for BTK in Mino cells; format: cell-based; design: host or cells: Mino; conditions: up to 1000 nM, 24 h, Western blot
Description: Mino cells were seeded into the wells of six-well plates at the density of 5×10^5 cells per mL in 2 mL of complete RPMI-1640 culture medium. After overnight adaptation, cells were treated with serially diluted compounds (from 1,000-1.6 nM, 5-fold dilution) for 24 hours. After treatment, whole cell lysates for immunoblotting were prepared by pelleting Mino cells at 4° C. and 200×g for 5 minutes. The resulting cell pellets were washed once with ice-cold PBS and lysed in 1×RIPA lysis buffer (Alfa Aesar, Cat. No. J62524) supplemented with protease and phosphatase inhibitor cocktail (Thermo Fisher, Cat. No. 78430). Lysates were centrifuged at 15,000×g for 10 min at 4° C. and protein concentrations were assessed using BCA assay (Pierce, Cat. No. 23225). Same amounts of protein (30 μg) for each sample were loaded onto sodium dodecyl sulfate-polyacrylamide gel, separated by electrophoresis (Bio-Rad) at 120 V for 1.5 h and transferred to PVDF membrane using a Transblot Turbo system (Bio-Rad). After blocking for 1 h at room temperature in 1% BSA-TBST, the membranes were immunoblotted with the specified primary antibodies at the dilution of 1:1000 in TBST (Cell Signaling Technology: anti-BTK Cat. No. 8547, anti-IKZF1 Cat. No. 14859, anti-IKZF3 Cat. No. 15103, anti-β-actin Cat. No. 4570, Proteintech: anti-GSPT1, Cat. No. 10763-1-AP) overnight at 4° C. and the HRP-conjugated secondary antibodies (Cell Signaling, Cat. No. 7074, 1:1000 in TBST) for 1 h at room temperature. Imaging was performed using the ECL Prime chemiluminescent Western blot detection reagents (Kindle Biosciences, Cat. No. R1100) by visualization of the blots with an Imager (Kindle Biosciences, Cat. No. D1001). All Western blots were subsequently processed and quantified with Imager software ImageJ and protein level was normalized to the B-actin loading controls.
Target sequence in this assay (Q06187 whole entry): as the sequence (Q06187 whole entry, species assumed) above

Rec-R cells = assay: Alarma Blue cell viability assay, Rec-R cells; format: cell-based; conditions: 72 h
Mino cells [7] = conditions: Mino cells pretreated with PS-RC-Ctrl 2 and 10 μM for 2 h
From the text: as §8, §9

Jeko-1 cells = assay: Alarma Blue cell viability assay, Jeko-1 cells; format: cell-based; conditions: 72 h
IKZF1 = target: T5, IKZF1 (Homo sapiens, UniProt Q13422+Q96SW2); assay: Western blotting for IKZF1 in Mino cells; format: cell-based; conditions: 24 h, Western blot, read-out: IKZF1-WB Endpoint Dmax
T5 construct: host or cells: Mino
Description: as §2
(§6) After treatment, whole cell lysates for immunoblotting were prepared by pelleting Mino cells at 4° C. and 200×g for 5 minutes. […] Imaging was performed using the ECL Prime chemiluminescent Western blot detection reagents (Kindle Biosciences, Cat. No. R1100) by visualization of the blots with an Imager (Kindle Biosciences, Cat. No. D1001). All Western blots were subsequently processed and quantified with Imager software ImageJ and protein level was normalized to the B-actin loading controls.

IKZF3-nLuc [8] = target: T6, IKZF3-nLuc (Homo sapiens, UniProt Q96SW2+Q9UKT9); assay: IKZF3-nLuc degradation kinetics assay in HEK-293T cells; format: cell-based; conditions: HEK-293T, read-out: IKZF3-nLuc Degradation Kinetics Dmax
T6 construct: Addgene (vector) HsCD00513042; pLenti6.2-ccdB-Nanoluc 87078; host or cells: HEK-293T17
From the text: as §2

IKZF1-nLuc [9] = target: T7, IKZF1-nLuc (Homo sapiens, UniProt Q13422+Q96SW2); assay: IKZF1-nLuc endpoint degradation assay in HEK-293T cells; format: cell-based; conditions: HEK-293T, read-out: IKZF1-nLuc Endpoint Dmax
T7 construct: Addgene (vector) HsCD00512327; pLenti6.2-ccdB-Nanoluc 87078; host or cells: HEK-293T17
Description: as §2
(§7) The nanoluc activity was determined using the furimazine substrate (Promega, Cat. No. N1110). Briefly, after 4 h incubation of indicated compounds, cells were directly lysed by addition of 100 μL of nanoluciferase detection solution, containing lysis buffer and furimazine (1/50 dilution). For the 24-hour treatment group, the old medium was replaced with 100 μL fresh opti-MEM, followed by the addition of equal volume of lysis buffer plus furimazine (1/50 dilution).

IKZF1-nLuc [10] = target: T7, IKZF1-nLuc; assay: IKZF1-nLuc degradation kinetics assay in HEK-293T cells; format: cell-based; conditions: HEK-293T, read-out: IKZF1-nLuc Degradation Kinetics Dmax
From the text: as §2

IKZF3-nLuc [11] = target: T6, IKZF3-nLuc; assay: IKZF3-nLuc endpoint degradation assay in HEK-293T cells; format: cell-based; conditions: HEK-293T, read-out: IKZF3-nLuc Endpoint Dmax
Description: as §2, §7

IKZF3 = target: T8, IKZF3 (Homo sapiens, UniProt Q96SW2+Q9UKT9); assay: Western blotting for IKZF3 in Mino cells; format: cell-based; conditions: 24 h, Western blot, read-out: IKZF3-WB Endpoint Dmax
T8 construct: host or cells: Mino
Description: as §2, §6

MOLM-14 cells = assay: Alarma Blue cell viability assay, MOLM14 cells; format: cell-based; conditions: Homo sapiens, 72 h, read-out: IC50, cell growth inhibition
From the text: as §3

T7 sequence (Q13422 whole entry): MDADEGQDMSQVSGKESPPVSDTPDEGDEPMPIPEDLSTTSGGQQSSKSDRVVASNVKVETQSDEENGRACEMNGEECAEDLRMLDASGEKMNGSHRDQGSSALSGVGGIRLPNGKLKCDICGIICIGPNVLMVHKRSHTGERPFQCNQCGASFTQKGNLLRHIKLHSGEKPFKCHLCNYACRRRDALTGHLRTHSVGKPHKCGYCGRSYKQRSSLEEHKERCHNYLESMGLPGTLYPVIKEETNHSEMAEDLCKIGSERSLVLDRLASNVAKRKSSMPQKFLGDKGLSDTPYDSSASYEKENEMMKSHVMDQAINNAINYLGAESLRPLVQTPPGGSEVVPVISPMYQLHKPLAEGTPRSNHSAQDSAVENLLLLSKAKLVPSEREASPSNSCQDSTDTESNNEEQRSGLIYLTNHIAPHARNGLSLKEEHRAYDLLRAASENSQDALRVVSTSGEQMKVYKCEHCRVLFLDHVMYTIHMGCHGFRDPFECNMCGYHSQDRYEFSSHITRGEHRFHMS
T7 sequence (Q96SW2 whole entry): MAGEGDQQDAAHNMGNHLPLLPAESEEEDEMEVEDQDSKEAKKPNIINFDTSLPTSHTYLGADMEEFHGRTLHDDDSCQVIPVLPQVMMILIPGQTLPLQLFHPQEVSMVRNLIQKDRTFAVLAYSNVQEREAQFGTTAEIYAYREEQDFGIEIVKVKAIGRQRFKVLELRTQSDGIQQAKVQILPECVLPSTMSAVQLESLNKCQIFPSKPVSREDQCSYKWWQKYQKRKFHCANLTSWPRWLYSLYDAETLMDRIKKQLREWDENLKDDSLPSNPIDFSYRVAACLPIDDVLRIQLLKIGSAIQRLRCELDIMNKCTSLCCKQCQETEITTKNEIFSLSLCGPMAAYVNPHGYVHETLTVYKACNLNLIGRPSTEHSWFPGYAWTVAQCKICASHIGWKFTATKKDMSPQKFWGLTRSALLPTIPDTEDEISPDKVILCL
T7 sequence (Q16531 whole entry partner): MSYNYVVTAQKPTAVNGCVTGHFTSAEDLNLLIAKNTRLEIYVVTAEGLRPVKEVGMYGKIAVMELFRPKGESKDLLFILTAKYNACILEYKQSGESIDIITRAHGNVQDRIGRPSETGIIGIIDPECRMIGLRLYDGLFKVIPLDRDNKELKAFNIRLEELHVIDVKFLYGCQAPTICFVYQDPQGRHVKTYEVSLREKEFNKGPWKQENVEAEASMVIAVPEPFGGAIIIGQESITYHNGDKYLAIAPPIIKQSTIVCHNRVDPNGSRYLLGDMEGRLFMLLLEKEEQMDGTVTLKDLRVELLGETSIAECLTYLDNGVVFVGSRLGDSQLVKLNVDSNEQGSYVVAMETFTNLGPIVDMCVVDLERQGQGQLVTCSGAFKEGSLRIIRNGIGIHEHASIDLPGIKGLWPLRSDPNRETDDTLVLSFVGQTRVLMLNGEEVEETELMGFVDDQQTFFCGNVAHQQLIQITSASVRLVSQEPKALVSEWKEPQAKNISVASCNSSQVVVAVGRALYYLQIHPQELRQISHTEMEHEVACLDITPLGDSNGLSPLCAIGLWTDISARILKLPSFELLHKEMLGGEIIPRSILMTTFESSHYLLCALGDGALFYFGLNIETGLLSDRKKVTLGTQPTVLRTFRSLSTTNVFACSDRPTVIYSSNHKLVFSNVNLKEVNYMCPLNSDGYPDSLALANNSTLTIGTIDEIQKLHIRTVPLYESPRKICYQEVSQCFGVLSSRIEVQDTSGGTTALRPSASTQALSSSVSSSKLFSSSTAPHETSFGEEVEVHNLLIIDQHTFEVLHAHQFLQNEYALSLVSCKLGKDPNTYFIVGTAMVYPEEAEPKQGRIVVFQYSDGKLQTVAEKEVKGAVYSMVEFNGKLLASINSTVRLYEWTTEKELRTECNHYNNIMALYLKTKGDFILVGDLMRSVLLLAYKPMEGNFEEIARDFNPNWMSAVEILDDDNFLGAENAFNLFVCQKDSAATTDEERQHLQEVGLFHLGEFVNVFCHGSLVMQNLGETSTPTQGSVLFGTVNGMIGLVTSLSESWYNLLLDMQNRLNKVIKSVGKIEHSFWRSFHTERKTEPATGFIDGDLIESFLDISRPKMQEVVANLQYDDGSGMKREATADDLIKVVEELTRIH
T3 sequence (Q06187 whole entry): as the sequence (Q06187 whole entry, species assumed) above
T6 sequence (Q9UKT9 whole entry): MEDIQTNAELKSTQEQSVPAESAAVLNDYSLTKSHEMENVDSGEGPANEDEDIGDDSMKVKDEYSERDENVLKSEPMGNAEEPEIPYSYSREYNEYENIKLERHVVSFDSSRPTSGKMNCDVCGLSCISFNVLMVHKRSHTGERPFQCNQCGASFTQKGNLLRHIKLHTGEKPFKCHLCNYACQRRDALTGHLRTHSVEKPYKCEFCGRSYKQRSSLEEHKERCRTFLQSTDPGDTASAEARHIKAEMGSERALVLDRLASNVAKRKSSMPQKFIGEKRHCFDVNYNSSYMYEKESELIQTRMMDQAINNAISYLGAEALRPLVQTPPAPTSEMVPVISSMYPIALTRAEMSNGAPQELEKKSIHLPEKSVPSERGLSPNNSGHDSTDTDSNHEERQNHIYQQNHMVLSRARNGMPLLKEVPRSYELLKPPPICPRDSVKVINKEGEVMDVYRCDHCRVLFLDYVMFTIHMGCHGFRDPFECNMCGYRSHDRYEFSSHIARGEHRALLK
T6 sequence (Q96SW2 whole entry): as the sequence (Q96SW2 whole entry) above
T6 sequence (Q16531 whole entry partner): as the sequence (Q16531 whole entry partner) above
T2 sequence (P15170 whole entry): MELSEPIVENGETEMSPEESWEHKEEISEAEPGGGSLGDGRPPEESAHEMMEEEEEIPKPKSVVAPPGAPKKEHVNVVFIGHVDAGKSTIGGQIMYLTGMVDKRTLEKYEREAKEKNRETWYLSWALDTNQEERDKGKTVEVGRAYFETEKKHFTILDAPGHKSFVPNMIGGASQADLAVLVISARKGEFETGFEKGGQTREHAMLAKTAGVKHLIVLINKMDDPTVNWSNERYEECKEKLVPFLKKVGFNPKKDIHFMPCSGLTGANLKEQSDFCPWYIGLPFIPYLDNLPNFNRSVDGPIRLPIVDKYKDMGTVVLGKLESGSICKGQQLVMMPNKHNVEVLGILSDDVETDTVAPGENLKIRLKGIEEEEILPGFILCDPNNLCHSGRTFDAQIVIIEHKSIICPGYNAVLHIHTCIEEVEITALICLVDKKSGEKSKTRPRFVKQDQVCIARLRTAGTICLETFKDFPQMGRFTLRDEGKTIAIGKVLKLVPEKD
T2 sequence (Q96SW2 whole entry): as the sequence (Q96SW2 whole entry) above
T2 sequence (Q16531 whole entry partner): as the sequence (Q16531 whole entry partner) above
T4 sequence (P35991 whole entry): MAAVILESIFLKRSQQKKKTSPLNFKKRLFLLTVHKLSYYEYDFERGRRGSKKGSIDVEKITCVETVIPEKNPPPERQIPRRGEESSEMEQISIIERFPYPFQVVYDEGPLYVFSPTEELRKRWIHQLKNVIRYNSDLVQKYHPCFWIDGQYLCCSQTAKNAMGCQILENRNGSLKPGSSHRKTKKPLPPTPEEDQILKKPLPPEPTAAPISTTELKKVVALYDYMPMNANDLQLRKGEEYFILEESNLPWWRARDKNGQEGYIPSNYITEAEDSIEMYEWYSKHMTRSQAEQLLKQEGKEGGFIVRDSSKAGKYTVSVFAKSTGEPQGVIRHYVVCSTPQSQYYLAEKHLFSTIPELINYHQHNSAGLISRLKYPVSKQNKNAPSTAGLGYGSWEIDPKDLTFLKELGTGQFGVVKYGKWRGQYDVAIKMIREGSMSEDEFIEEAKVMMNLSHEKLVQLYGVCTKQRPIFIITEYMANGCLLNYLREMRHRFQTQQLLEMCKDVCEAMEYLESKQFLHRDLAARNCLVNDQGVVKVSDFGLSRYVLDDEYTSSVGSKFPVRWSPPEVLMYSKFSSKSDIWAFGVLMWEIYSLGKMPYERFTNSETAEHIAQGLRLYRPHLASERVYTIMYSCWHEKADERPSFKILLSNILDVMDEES
T5 sequence (Q13422 whole entry): as the sequence (Q13422 whole entry) above
T5 sequence (Q96SW2 whole entry): as the sequence (Q96SW2 whole entry) above
T5 sequence (Q16531 whole entry partner): as the sequence (Q16531 whole entry partner) above

## CC1=CC(C)=[N+]2C1=Cc1ccc(CCC(=O)NCCCN(C)CCCC(=O)N3CCC[C@@H](n4nc(-c5ccc(Oc6ccccc6)cc5)c5c(N)ncnc54)C3)n1[B-]2(F)F [BTK tracer]
BTK [1]
  Kd: 155 nM

## Cc1ccc(NC(=O)NCc2ccc3c(c2)CN(C2CCC(=O)NC2=O)C3=O)cc1Cl (stereo not drawn) [CC-885, reference compound]
GSPT1
  GSPT1 degradation (result in words): potent GSPT1 degrader

## CN1CCN(c2ccc(Nc3nccc(Oc4ccccc4)n3)cc2)CC1 [PS2W]
BTK [2]
  competition with PS-2 induced BTK degradation (BTK ligand): cannot completely compete out

## O=C1CCC(N2C(=O)c3cccc(NCC(=O)N4CCN(c5ccc(Nc6nc(Oc7ccccc7)c7occc7n6)cc5)CC4)c3C2=O)C(=O)N1 (stereo not drawn) [PS-1, 2-(2,6-Dioxopiperidin-3-yl)-4-((2-oxo-2-(4-(4-((4-phenoxyfuro[3,2-d]pyrimidin-2-yl)amino)phenyl)piperazin-1-yl)ethyl)amino)isoindoline-1,3-dione]
Mino cells [3]; read-out: IC50, cell growth inhibition / cell viability, Mino cells, 72 h
  IC50: 16 nM
His-BTK
  binding to BTK (result in words): almost no binding to BTK
MM.1S cells
  IC50: 3 nM
BTK [4]
  BTK degradation (result in words): very weak or no BTK degradation
BTK [5]
  BTK degradation (result in words): very weak or no BTK degradation

## O=C1CCC(N2C(=O)c3cccc(NCC(=O)N4CCN(c5ccc(Nc6ncccn6)cc5)CC4)c3C2=O)C(=O)N1 (stereo not drawn) [PS-3, 2-(2,6-Dioxopiperidin-3-yl)-4-((2-oxo-2-(4-(4-(pyrimidin-2-ylamino)phenyl)piperazin-1-yl)ethyl)amino) isoindoline-1,3-dione]
BTK [4]
  BTK degradation (result in words): very weak or no BTK degradation
BTK [5]
  BTK degradation (result in words): very weak or no BTK degradation

## CC(C)(C)/C=C(\C#N)C(=O)Nc1cccc(Oc2nc(Nc3ccc(N4CCN(C(=O)CNc5cccc6c5C(=O)N(C5CCC(=O)NC5=O)C6=O)CC4)cc3)nc3ccoc23)c1 (stereo not drawn) [PS-RC-1, (E)-2-cyano-N-(3-((2-((4-(4-((2-(2,6-dioxopiperidin-3-yl)-1,3-dioxoisoindolin-4-yl)glycyl)piperazin-1-yl)phenyl)amino)furo[3,2-d]pyrimidin-4-yl)oxy)phenyl)-4,4-dimethylpent-2-enamide]
BTK [6]
  BTK degradation (result in words): none of the tested PROTACs induce appreciable BTK degradation
Rec-R cells
  response of cell growth to compound: poorly respond
Mino cells [7]
  IC50 shift upon PS-RC-Ctrl pre-treatment: An appreciable IC50 shift was not observed
Jeko-1 cells
  response of cell growth to compound: poorly respond
GSPT1
  GSPT1 degradation (result in words): does not degrade GSPT1

## Nc1cccc2c1C(=O)N(C1CCC(=O)NC1=O)C2=O (stereo not drawn) [Pomalidomide, reference compound]
Mino cells [3]; read-out: IC50, cell growth inhibition / cell viability
  IC50: 329 nM
IKZF1
  Dmax: 96%
IKZF3-nLuc [8]
  Dmax at 0.04 µM: 52%
  Dmax at 0.2 µM: 64%
IKZF1-nLuc [9]
  Dmax: 90%
IKZF1-nLuc [10]
  Dmax at 0.04 µM: 53%
  Dmax at 0.2 µM: 80%
IKZF3-nLuc [11]
  Dmax: 94%
Rec-R cells
  response of cell growth to compound: only Mino cells are responsive
Jeko-1 cells
  response of cell growth to compound: only Mino cells are responsive
IKZF3
  Dmax: 96%

## C=CC(=O)Nc1cccc(Oc2nc(Nc3ccc(N4CCN(C)CC4)cc3)nc3ccoc23)c1 [Poseltinib]
His-BTK
  IC50: 1.21 nM
  binding to BTK (result in words): binding affinity in the nM range
His-BTK; listed as poseltinib
  IC50: 1.1 nM and 1.2 nM
MOLM-14 cells
  IC50: 2900 nM
